Tests used:
[1] = system: tumour-associated transcripts GA733-2, MUC-1 and Her-2; assay: Detection of time-dependent induced transcription in treated blood samples of healthy donors (immunomagnetic cell selection, RT-PCR, Bioanalyser); assay type: cell-based, human; details: healthy donor
Source text: (§1) In all the examples which are represented subsequently, an analysis was implemented as described in EP 02 732 726. Antibodies were thereby coupled to magnetic particles for cell selection. The antibodies represented subsequently in Table 1 were thereby used as antibodies.
(§2) The magnetic particles were thereby used in a concentration of 4×10^8 beads/ml (CELLection™ Pan Mouse IgG Kit, company Dynal). The ratios between the antibody concentration and the antibodies coupled thereto are reproduced in Table 2.
The magnetic particles prepared in this way were mixed in equal parts and added to the blood (EDTA) in 100 μl PBS per 5 ml sample.
After 30 min incubation in an overhead agitator, the magnetic particles which were present possibly as cell-antibody magnetic particle complexes, were washed three times with PBS by means of a magnetic particle concentrator (MPC®-S, company Dynal) and the adhering cells were treated subsequently corresponding to the mRNA isolation protocol described subsequently. […]
(§3) The thus produced amplificates of the cDNA were separated electrophoretically by means of a bioanalyser 2100 (company Agilent). […] Peaks with a level of <4.0 are evaluated as negative. Peaks, the level of which is 4.0 to 6.7, can be evaluated neither as positive nor as negative. In this way FIGS. 1 to 6 were produced and evaluated.

tumour cell line Calu-3 = assay: Detection of 2 inoculated Calu-3 tumour cells in treated blood samples; assay type: cell-based, human; details: 2 Calu-3 cells
Source text: as §1, §2
The magnetic particles prepared in this way were mixed in equal parts and added to the blood (EDTA) in 100 μl PBS per 5 ml sample. […]
as §3, with “evaluated. […]” for “evaluated.”
Tracks 1, 4 and 7 thereby show a ladder with size markers, tracks 2, 5 and 8 show the amplified DNA fragments of the tumour-associated transcripts to be detected in a healthy donor and of an internal control of β-actin. […]

[2] = 0.01% (w/v) DU, 0 h, 24 h and 48 h at 4° C.
[3] = 0.025%, 0.05% and 0.075% (w/v) bronopol, 24 h at 4° C.

SMILES	analysis result for illegitimate time-dependent induced expression, samples without inoculated cells [1, 2]	detection of tumour-associated transcripts of inoculated cells (tumour cell line Calu-3; [2])	analysis result for illegitimate time-dependent induced expression [1, 3]	detection of tumour-associated transcripts of inoculated cells (tumour cell line Calu-3; [3])
O=C(NCO)N(CO)C1(CO)C(=O)NC(=O)N1CO (stereo not shown) [DU, diazolidinyl urea]	negative	detected unequivocally		
O=[N+]([O-])C(Br)(CO)CO [bronopol, 2-bromo-2-nitropropane-1,3-diol]			negative	detected unequivocally
